Experimental data as given in patent publication US10604514B2, “6-(5-membered heteroaryl)isoquinolin-3-yl carboxamides and preparation and use thereof” (Samumed, LLC, priority 2017, dated 2020).
Read-outs that look alike come from different tables or passages of the source.

Legend:
[1] = test system: LL29 cells (primary human fibroblasts derived from IPF patients), α-smooth muscle actin; experiment: Inhibition of fibrotic process: αSMA in TGF-β1-treated primary human fibroblasts from IPF patients (LL29 cells); assay type: cell-based; details: Homo sapiens, Fibroblast; for EC50: 96 h, % αSMA-positive LL29 cells, TGF-β1 20 ng/mL, 4 days; for inhibition at 10 µM: read-out: percent inhibition at 10 μM
In short: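 Read-out is the percentage of αSMA-positive cells by high-content imaging, excluding SYTOX green-positive dead/apoptotic cells, normalized to TGF-β1-only wells on the same plate. LL29 cells were exposed for 4 days at 37 °C to 20 ng/mL TGF-β1 plus 11-point, 2-fold compound dilutions in 0.1% DMSO.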

[2] = test system: Tau phosphorylation at Ser396 (pSer396), SH-SY5Y cells; experiment: Tau phosphorylation at Ser396 (pSer396) in SH-SY5Y cells, ELISA/western blot; assay type: cell-based, human; details: Homo sapiens;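 also: cell lysates probed for reduced Tau pSer396 via ELISA (colorimetric) or western blot (chemiluminescence), both with one shared pSer396 antibody, EC50 for lowering phosphorylation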
[3] = biological target: DYRK1A kinase (Homo sapiens (Human), UniProt Q13627); experiment: DYRK1A kinase assay (Ser/Thr 18 peptide Z-lyte, FRET); details: DYRK1A kinase; method text calls the value IC50
Procedure: Each compound was dissolved in DMSO as a 10 mM stock and used to prepare compound source plates.
This is a non-radioactive assay using fluorescence resonance energy transfer (FRET) between coumarin and fluorescein to detect kinase activity which is represented as a ratio of coumarin emission/fluorescein emission.
The mixture was allowed to incubate with the representative compounds for one hour at room temperature. All reactions were performed in duplicate. Unphosphorylated (“0% Control”) and phosphorylated (“100% control”) forms of Ser/Thr 18 served as control reactions. Additionally, an 11-point dose-response curve of Staurosporine (1 uM top) was run to serve as a positive compound control.
After incubation, Development Reagent A was diluted in Development Buffer then added to the reaction and allowed to further incubate for one hour at room temperature.
The percent phosphorylation was then calculated using the following formula: [1−((Em ratio×F100%)−C100%)/((C0%−C100%)+(Em ratio×(F100%−F0%)))]. Dose-response curves were generated and inhibitory concentration (IC50) values were calculated using non-linear regression curve fit in the Dotmatics' Studies Software (Bishops Stortford, UK).

[4] = biological target: GSK3β kinase (Homo sapiens (Human), UniProt P49841); experiment: GSK3β kinase assay (Ser/Thr 09 peptide Z-lyte, FRET); assay type: biochemical; details: method text calls the value IC50;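 also: Coumarin/fluorescein emission ratio converted to percent phosphorylation against unphosphorylated (0%) and phosphorylated (100%) controls, 1 h compound incubation at room temperature, 11-point threefold dilutions from 10 µM, run in duplicate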
Chain of GSK3β kinase (P49841 whole entry): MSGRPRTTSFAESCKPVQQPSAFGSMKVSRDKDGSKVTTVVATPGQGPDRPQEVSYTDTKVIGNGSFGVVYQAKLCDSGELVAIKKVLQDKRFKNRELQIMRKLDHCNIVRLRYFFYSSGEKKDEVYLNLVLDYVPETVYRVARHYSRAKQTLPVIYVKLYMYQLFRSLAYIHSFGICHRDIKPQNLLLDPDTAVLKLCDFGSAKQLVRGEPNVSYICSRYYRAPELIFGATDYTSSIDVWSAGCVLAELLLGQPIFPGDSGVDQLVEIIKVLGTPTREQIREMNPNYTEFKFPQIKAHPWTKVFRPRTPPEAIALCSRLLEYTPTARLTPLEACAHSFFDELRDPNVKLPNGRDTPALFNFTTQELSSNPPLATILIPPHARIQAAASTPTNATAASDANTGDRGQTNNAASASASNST

[5] = test system: Wnt activity (Sp5-Luc reporter in SW480 colon carcinoma cells); experiment: Wnt activity screening assay (Sp5-Luc reporter gene assay); assay type: cell-based, human
In short: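 Compounds at 10 points (1:3 steps, top 10 μM, 0.1% DMSO final) were incubated 36 to 48 h at 37° C with stable Sp5-Luc SW480 reporter cells in 1% FBS medium. Luciferase luminescence was then read and expressed relative to DMSO-only cells. Four-parameter variable-slope fitting yielded EC50 values.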

[6] = test system: SW480 colon carcinoma cells; experiment: Cell viability assay (CellTiter-Glo) in SW480 cells; assay type: cell-based, human;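 also: SW480 cells stably carrying an Sp5-luciferase TCF/LEF reporter, luminescent ATP signal as viability measure, DMSO-treated cells as control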
[7] = SH-SY5Y cells, overnight (16-18 h), read-out: pSer396 Tau EC50
[8] = Homo sapiens; Sp5-Luc reporter, SW480 cells, 36 to 48 hours
[9] = Homo sapiens, 96 h; cell viability, SW480 cells, four days, CellTiter-Glo
[10] = SH-SY5Y, read-out: pSer396 Tau EC50 (μM)
[11] = Homo sapiens, SW480, read-out: percent inhibition at 10 μM
[12] = Homo sapiens, SW480; read-out: percent inhibition at 10 μM

SMILES	EC50 [2, 7]	EC50 [3]	EC50 [4]	EC50 [5, 8]	EC50 [6, 9]	EC50 [1]	EC50 [2, 10]	inhibition at 10 µM [5, 11]	inhibition at 10 µM [6, 11]	inhibition at 10 µM [1]	inhibition at 10 µM [5, 12]	inhibition at 10 µM [6, 12]
CN1CC2CCC(C1)N2C(=O)Nc1cc2cc(-c3cnn(C)c3)ccc2cn1 [Compound 61, 3-Methyl-N-(6-(1-methyl-1H-pyrazol-4-yl)isoquinolin-3-yl)-3,8-diazabicyclo[3.2.1]octane-8-carboxamide]	–	7 nM	9210 nM	> 10000 nM	> 10000 nM	2770 nM	> 10 µM	22.4%	13.1%	–	–	–
Cc1nnc(-c2ccc3cnc(NC(=O)N4C5CCC4CN(C)C5)cc3c2)s1 [Compound 108, 3-Methyl-N-(6-(5-methyl-1,3,4-thiadiazol-2-yl)isoquinolin-3-yl)-3,8-diazabicyclo[3.2.1]octane-8-carboxamide]	–	10 nM	671 nM	> 10000 nM	> 10000 nM	> 10000 nM	> 10 µM	19.9%	7.8%	18.2%	–	–
Cc1nnc(-c2ccc3cnc(NC(=O)N4[C@@H]5CC[C@H]4C[C@H](NCCC(F)(F)F)C5)cc3c2)s1 [Compound 153, (1R,5S)-N-(6-(5-Methyl-1,3,4-thiadiazol-2-yl)isoquinolin-3-yl)-3-exo-((3,3,3-trifluoropropyl)amino)-8-azabicyclo[3.2.1]octane-8-carboxamide]	–	28 nM	532 nM	> 10000 nM	> 10000 nM	> 10000 nM	> 10 µM	3.4%	0%	9%	–	–
Cc1ncc(-c2ccc3cnc(NC(=O)[C@H]4CC[C@H](NCCF)CC4)cc3c2)o1 [Compound 155, trans-4-((2-fluoroethyl)amino)-N-(6-(2-methyloxazol-5-yl)isoquinolin-3-yl) cyclohexane-1-carboxamide]	0.384 µM	8 nM	668 nM	2670 nM	807 nM	1060 nM	–	–	–	–	–	–
Cc1nnc(-c2ccc3cnc(NC(=O)N4[C@@H]5CC[C@H]4C[C@@H](NCCC(F)(F)F)C5)cc3c2)s1 [Compound 195, (1R,5S)-cis-N-(6-(5-methyl-1,3,4-thiadiazol-2-yl)isoquinolin-3-yl)-3-((3,3,3-trifluoropropyl)amino)-8-azabicyclo[3.2.1]octane-8-carboxamide]	–	5 nM	1250 nM	> 10000 nM	> 10000 nM	> 10000 nM	> 10 µM	13.8%	13%	23.4%	–	–
Cc1nnc(-c2cc(F)c3cnc(NC(=O)N(C)C4CCN(C)CC4)cc3c2)s1 [Compound 227, 3-(8-Fluoro-6-(5-methyl-1,3,4-thiadiazol-2-yl)isoquinolin-3-yl)-1-methyl-1-(1-methylpiperidin-4-yl)urea]	4.5 µM	24 nM	4500 nM	3650 nM	> 10000 nM	–	–	–	–	–	–	1.9%
CN1CCC(N(C)C(=O)Nc2cc3cc(-c4cn(C)nn4)cc(F)c3cn2)CC1 [Compound 228, 3-(8-Fluoro-6-(1-methyl-1H-1,2,3-triazol-4-yl)isoquinolin-3-yl)-1-methyl-1-(1-methylpiperidin-4-yl)urea]	6.4 µM	12 nM	255 nM	> 10000 nM	> 10000 nM	9980 nM	–	–	–	–	46.3%	–
CN1CCC(N(C)C(=O)Nc2cc3cc(-c4cnn(C)c4)cc(F)c3cn2)CC1 [Compound 230, 3-(8-Fluoro-6-(1-methyl-1H-pyrazol-4-yl)isoquinolin-3-yl)-1-methyl-1-(1-methylpiperidin-4-yl)urea]	–	21 nM	3640 nM	> 10000 nM	> 10000 nM	6330 nM	–	–	–	–	0%	31.9%

Further lines, with some results ahead:

EC50 [2, 7]	EC50 [3]	EC50 [4]	EC50 [5, 8]	EC50 [6, 9]	SMILES	EC50 [1]	EC50 [2, 10]	inhibition at 10 µM [5, 11]	inhibition at 10 µM [6, 11]	inhibition at 10 µM [1]	inhibition at 10 µM [5, 12]	inhibition at 10 µM [6, 12]
0.126 µM	5 nM	22 nM	434 nM	2050 nM	Cc1nnc(-c2ccc3cnc(NC(=O)[C@H]4CC[C@H](N(C)C)CC4)cc3c2)s1 [Compound 22, trans-4-(Dimethylamino)-N-(6-(5-methyl-1,3,4-thiadiazol-2-yl)isoquinolin-3-yl)cyclohexane-1-carboxamide]	602 nM	–	–	–	–	–	–
0.058 µM	6 nM	7 nM	1460 nM	547 nM	Cc1cn2c(n1)CN(C(=O)Nc1cc3cc(-c4nnc(C)s4)ccc3cn1)CC2 [Compound 58, 2-Methyl-N-(6-(5-methyl-1,3,4-thiadiazol-2-yl)isoquinolin-3-yl)-5,6-dihydroimidazo[1,2-a]pyrazine-7(8H)-carboxamide]	788 nM	–	–	–	–	–	–
> 10 µM	7 nM	1870 nM	> 10000 nM	3990 nM	C[C@@H]1CN(C(=O)Nc2cc3cc(-c4cnn(C)c4)ccc3cn2)CCN1C [Compound 67, (R)-3,4-Dimethyl-N-(6-(1-methyl-1H-pyrazol-4-yl)isoquinolin-3-yl) piperazine-1-carboxamide]	> 10000 nM	–	–	–	5.2%	34.3%	–
0.323 µM	17 nM	320 nM	3430 nM	2960 nM	COCCN[C@H]1CC[C@H](C(=O)Nc2cc3cc(-c4cnc(C)o4)ccc3cn2)CC1 [Compound 106, trans-4-((2-Methoxyethyl)amino)-N-(6-(2-methyloxazol-5-yl)isoquinolin-3-yl)cyclohexane-1-carboxamide]	707 nM	–	–	–	–	–	–
–	6 nM	194 nM	3980 nM	6110 nM	COCCN[C@H]1CC[C@H](C(=O)Nc2cc3cc(-c4cnn(C)c4)ccc3cn2)CC1 [Compound 196, trans-4-((2-Methoxyethyl)amino)-N-(6-(1-methyl-1H-pyrazol-4-yl)isoquinolin-3-yl)cyclohexane-1-carboxamide]	184 nM	–	–	–	–	–	–
–	16 nM	2820 nM	3890 nM	> 10000 nM	Cc1ncc(-c2ccc3cnc(NC(=O)N(C)C4CCN(C)CC4)cc3c2)o1 [Compound 231, 1-Methyl-3-(6-(2-methyloxazol-5-yl)isoquinolin-3-yl)-1-(1-methylpiperidin-4-yl)urea]	2950 nM	–	–	–	–	–	41.6%
